Molecular target: T1, Adenosine kinase (Toxoplasma gondii, UniProt Q9TVW2)
T1 sequence (Q9TVW2 whole entry): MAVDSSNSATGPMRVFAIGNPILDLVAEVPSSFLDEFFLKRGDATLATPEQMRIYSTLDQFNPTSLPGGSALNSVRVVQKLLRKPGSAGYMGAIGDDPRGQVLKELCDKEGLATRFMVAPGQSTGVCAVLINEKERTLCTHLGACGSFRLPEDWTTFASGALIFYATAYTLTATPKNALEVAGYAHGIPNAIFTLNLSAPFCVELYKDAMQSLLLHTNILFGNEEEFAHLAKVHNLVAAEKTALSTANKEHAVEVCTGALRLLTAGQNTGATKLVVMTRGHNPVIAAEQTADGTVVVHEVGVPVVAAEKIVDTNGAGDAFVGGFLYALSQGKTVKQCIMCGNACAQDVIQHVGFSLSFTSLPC
Assay: Inhibition of Toxoplasma gondii adenosine kinase

Row | Structure (SMILES) | IC50 (read-out: IC50) [µM] | IC50 (read-out: pIC50 (converted)) [µM] | Ki [µM]
1 | COc1ccc(CNc2ncnc3c2ncn3[C@@H]2O[C@H](CO)[C@@H](O)[C@H]2O)cc1 | 7.5 | 7.19 | 
2 | COc1ccccc1CNc1ncnc2c1ncn2[C@@H]1O[C@H](CO)[C@@H](O)[C@H]1O | 8.7 |  | 
3 | OC[C@H]1O[C@@H](n2cnc3c(SCc4ccc(OC(F)(F)F)cc4)ncnc32)[C@H](O)[C@@H]1O | 24.8 |  | 141
4 | OC[C@H]1O[C@@H](n2cnc3c(NCc4ccc(F)cc4F)ncnc32)[C@H](O)[C@@H]1O | 8.2 |  | 
5 | OC[C@H]1O[C@@H](n2cnc3c(NCc4ccccc4)ncnc32)[C@H](O)[C@@H]1O [N6-BENZYLADENOSINE] |  | 794 | 
6 | N#Cc1ccc(CSc2ncnc3c2ncn3[C@@H]2O[C@H](CO)[C@@H](O)[C@H]2O)cc1 | 4.3 |  | 0.9
7 | Cc1cccc(CSc2ncnc3c2ncn3[C@@H]2O[C@H](CO)[C@@H](O)[C@H]2O)c1 | 8.2 |  | 1.3
8 | OC[C@H]1O[C@@H](n2cnc3c(NCc4ccccc4F)ncnc32)[C@H](O)[C@@H]1O | 37.8 |  | 
9 | OC[C@H]1O[C@@H](n2cnc3c(SCc4ccc(Cl)cc4Cl)ncnc32)[C@H](O)[C@@H]1O | 7.3 |  | 0.7
10 | Cc1ccccc1CSc1ncnc2c1ncn2[C@@H]1O[C@H](CO)[C@@H](O)[C@H]1O | 7.7 |  | 1.5
11 | OC[C@H]1O[C@@H](n2cnc3c(SCc4ccccc4Cl)ncnc32)[C@H](O)[C@@H]1O | 6.7 |  | 1.4
12 | Cc1ccc(CNc2ncnc3c2ncn3[C@@H]2O[C@H](CO)[C@@H](O)[C@H]2O)cc1 | 10.5 |  | 
13 | OC[C@H]1O[C@@H](n2cnc3c(NCc4ccc(Cl)cc4)ncnc32)[C@H](O)[C@@H]1O | 25.8 |  | 
14 | O=[N+]([O-])c1cccc(CSc2ncnc3c2ncn3[C@@H]2O[C@H](CO)[C@@H](O)[C@H]2O)c1 | 6.2 |  | 3
15 | OC[C@H]1O[C@@H](n2cnc3c(SCc4ccccc4)ncnc32)[C@H](O)[C@@H]1O [6-BENZYLTHIOINOSINE] | 9.3 |  | 2.4
16 | OC[C@H]1O[C@@H](n2cnc3c(NCc4ccc(Cl)c(Cl)c4)ncnc32)[C@H](O)[C@@H]1O | 14.3 |  | 
17 | N#Cc1ccc(CNc2ncnc3c2ncn3[C@@H]2O[C@H](CO)[C@@H](O)[C@H]2O)cc1 [P-CYANO-N6-BENZYLADENOSINE] | 8.3 |  | 
18 | CC(=O)Oc1ccc(CSc2ncnc3c2ncn3[C@@H]2O[C@H](CO)[C@@H](O)[C@H]2O)cc1 [P-ACETOXY-6-BENZYLTHIOINOSINE] | 15 |  | 96.1
19 | Cc1cccc(CNc2ncnc3c2ncn3[C@@H]2O[C@H](CO)[C@@H](O)[C@H]2O)c1 | 8.5 |  | 
20 | C=Cc1ccc(CNc2ncnc3c2ncn3[C@@H]2O[C@H](CO)[C@@H](O)[C@H]2O)cc1 [P-VINYL-N6-BENZYLADENOSINE] | 26.2 |  | 
21 | COc1ccc(CNc2ncnc3c2ncn3[C@@H]2O[C@H](CO)[C@@H](O)[C@H]2O)c(F)c1 | 9.5 |  | 

Row | Structure (SMILES) | IC50 (read-out: IC50) [µM] | IC50 (read-out: pIC50 (converted)) [µM] | Ki [µM]
22 | OC[C@H]1O[C@@H](n2cnc3c(SCc4ccc(F)cc4)ncnc32)[C@H](O)[C@@H]1O | 10.3 |  | 1.2
23 | OC[C@H]1O[C@@H](n2cnc3c(SCc4c(F)cccc4Cl)ncnc32)[C@H](O)[C@@H]1O | 8.7 |  | 37.7
24 | O=[N+]([O-])c1ccccc1CNc1ncnc2c1ncn2[C@@H]1O[C@H](CO)[C@@H](O)[C@H]1O [O-NITRO-N6-BENZYLADENOSINE] | 15 |  | 
25 | COc1ccc(CSc2ncnc3c2ncn3[C@@H]2O[C@H](CO)[C@@H](O)[C@H]2O)cc1 | 3.5 |  | 2.6
26 | CC(C)(C)c1ccc(CSc2ncnc3c2ncn3[C@@H]2O[C@H](CO)[C@@H](O)[C@H]2O)cc1 | 23.3 |  | 113
27 | OC[C@H]1O[C@@H](n2cnc3c(SCc4ccccc4F)ncnc32)[C@H](O)[C@@H]1O | 8.2 |  | 
28 | OC[C@H]1O[C@@H](n2cnc3c(SCc4ccc(Cl)c(Cl)c4)ncnc32)[C@H](O)[C@@H]1O | 10.4 | 21.1 | 2.5
29 | CC(C)c1ccc(CNc2ncnc3c2ncn3[C@@H]2O[C@H](CO)[C@@H](O)[C@H]2O)cc1 [P-ISOPROPYL-N6-BENZYLADENOSINE] | 22 |  | 
30 | COc1ccc(CNc2ncnc3c2ncn3[C@@H]2O[C@H](CO)[C@@H](O)[C@H]2O)c(OC)c1 | 8.7 |  | 
31 | OC[C@H]1O[C@@H](n2cnc3c(SCc4ccc(Cl)cc4)ncnc32)[C@H](O)[C@@H]1O | 8.11 |  | 2.1
32 | N#Cc1ccc(CNc2ncnc3c2ncn3[C@@H]2O[C@H](CO)[C@@H](O)[C@H]2O)c(Cl)c1 | 21.1 | 10.4 | 
33 | O=[N+]([O-])c1ccc(CSc2ncnc3c2ncn3[C@@H]2O[C@H](CO)[C@@H](O)[C@H]2O)cc1 [NITROBENZYLMERCAPTOPURINE RIBONUCLEOSIDE] | 12 |  | 1.1
34 | OC[C@H]1O[C@@H](n2cnc3c(NCc4ccc(Cl)cc4Cl)ncnc32)[C@H](O)[C@@H]1O | 9.3 |  | 
35 | Cc1ccc(CSc2ncnc3c2ncn3[C@@H]2O[C@H](CO)[C@@H](O)[C@H]2O)cc1 | 7.8 |  | 3.3
36 | OC[C@H]1O[C@@H](n2cnc3c(NCc4ccc(C(F)(F)F)cc4)ncnc32)[C@H](O)[C@@H]1O | 22.9 |  | 
37 | OC[C@H]1O[C@@H](n2cnc3c(NCc4cccc(F)c4)ncnc32)[C@H](O)[C@@H]1O | 23.2 |  | 
38 | OC[C@H]1O[C@@H](n2cnc3c(NCc4ccc(F)cc4)ncnc32)[C@H](O)[C@@H]1O | 20.6 |  | 
39 | OC[C@H]1O[C@@H](n2cnc3c(NCc4ccccc4Cl)ncnc32)[C@H](O)[C@@H]1O | 10.6 |  | 
40 | OC[C@H]1O[C@@H](n2cnc3c(SCc4cccc(C(F)(F)F)c4)ncnc32)[C@H](O)[C@@H]1O | 8.7 |  | 2.9
41 | Cc1cc(C)c(CSc2ncnc3c2ncn3[C@@H]2O[C@H](CO)[C@@H](O)[C@H]2O)c(C)c1 | 31.1 |  | 150
42 | OC[C@H]1O[C@@H](n2cnc3c(SCc4ccc(Br)cc4)ncnc32)[C@H](O)[C@@H]1O | 14.3 |  | 7.5

Reference: ChEMBL document CHEMBL3045254, “Molecular modeling of the Toxoplasma gondii adenosine kinase inhibitors” (Med Chem Res, 2012)
